Experimental data from patent US20120196854A1, “PHARMACEUTICAL COMPOSITION COMPRISING AROMATIC HETEROCYCLIC COMPOUND” (Kyowa Hakko Kirin Co., Ltd., priority 2009, published 2012).

Experiments:
human H-PGDS = target: T1, human H-PGDS (Homo sapiens, UniProt O60760); assay: H-PGDS inhibitory activity (Prostaglandin D Synthase Inhibitor Screening Assay Kit); format: biochemical; conditions: at a concentration of 1 μmol/L; read-out: H-PGDS inhibitory rate
T1 construct: purchased Cayman Chemical 10006593
Procedure: The H-PGDS inhibitory activity of Compound (I) was calculated according to the following protocol attached to Prostaglandin D Synthase Inhibitor Screening Assay Kit (Cat. No. 10006595, Cayman Chemical, Ann Arbor, Mich., USA).
(§1) First, to a 96-well round-bottom plate (Cat. No. 3882-096, Asahi Techno Glass, Chiba), 60 μL/well of an enzyme assay buffer (0.1 mol/L Tris-HCl, pH 8.0), 10 μL/well of a human H-PGDS [Cat. No. 10006593 (human), Cayman Chemical, Ann Arbor, Mich., USA] at a final concentration of 0.125 μg/mL, 10 μL/well of reduced glutathione at a final concentration of 1 mmol/L, and 10 μL/well of Compound (I) diluted with the enzyme assay buffer were added and lightly mixed. The plate was allowed to stand at room temperature for 10 minutes, and then 10 μL/well of prostaglandin H2(PGH2) (Cat. No. 17020, Cayman Chemical) at a final concentration of 50 μmol/L was added thereto to start enzyme reaction. The reaction was allowed to proceed with mixing by a plate mixer for 1 minute. After the enzyme reaction, 10 μL/well of a 4 mg/mL FeCl2-HCl solution prepared by dissolving FeCl2 in 1 mol/L hydrochloric acid was added to stop the reaction and reduce PGH2 simultaneously. The enzyme reaction solution (100 μL/well) was transferred to a 96-well UV-Star half area plate (Cat. No. 675801, Greiner, Frickenhausen, Germany), and measured for absorbance at 232 nm using a microplate reader Power Wave (BioTek Instrument Inc., Winooski, Vt., USA).
The H-PGDS inhibitory activity (inhibitory rate) of Compound (I) was calculated by the following formula.
The H-PGDS inhibitory activity of Compound 133 was calculated according to the following protocol attached to Prostaglandin D Synthase Inhibitor Screening Assay Kit (Cat. No. 10006595, Cayman Chemical, Ann Arbor, Mich., USA).
as §1, with “133” for “(I)”
The H-PGDS inhibitory activity (inhibitory rate) of Compound 133 was calculated according to the method in Test Example 1.

[1] = target: T2, human lipocalin-prostaglandin D2 synthase (human lipocalin-PGDS) (Homo sapiens, UniProt P41222); assay: Inhibition of human lipocalin-PGDS enzyme activity; format: biochemical; conditions: at a concentration of 10 μmol/L; read-out: inhibitory rate, human lipocalin-PGDS
T2 sequence (P41222 23-190): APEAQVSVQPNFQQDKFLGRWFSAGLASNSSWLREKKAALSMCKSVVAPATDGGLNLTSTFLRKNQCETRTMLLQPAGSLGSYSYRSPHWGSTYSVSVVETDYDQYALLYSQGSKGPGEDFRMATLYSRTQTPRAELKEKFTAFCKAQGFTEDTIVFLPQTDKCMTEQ

T1 sequence (O60760 whole entry): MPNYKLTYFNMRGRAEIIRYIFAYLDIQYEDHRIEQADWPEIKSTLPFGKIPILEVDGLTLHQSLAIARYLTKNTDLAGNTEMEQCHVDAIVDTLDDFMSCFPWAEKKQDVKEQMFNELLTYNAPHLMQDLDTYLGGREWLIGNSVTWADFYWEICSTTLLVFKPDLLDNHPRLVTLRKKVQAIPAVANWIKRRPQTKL

`O=C(O)c1cc(-c2ccco2)nc2ccc3nn(-c4ccccc4)nc3c12` [Compound 133, 7-(furan-2-yl)-2-phenyl-2H-[1,2,3]triazolo[4,5-f]quinoline-9-carboxylic acid] was tested, and the inhibition at 1 µM (human H-PGDS) was 73% and the inhibition at 10 µM [1] was no more than 20%.
